Read-outs that look alike come from different tables or passages of the source.
What was measured:
[1] = target: stem cell factor receptor tyrosine kinase (SCF RTK, commonly known as c-Kit) (Homo sapiens, UniProt P10721); assay: inhibition of c-Kit
pS6 [2] = assay: pharmacodynamic study, pS6 in A549 xenograft tissue; format: in vivo, mice; details: 4 days of treatment, 2 hrs after last dosing, Compound A 20 mg/kg, AZD2171 3 mg/kg
Description: (§1) Compound A was dosed two hours before AZD2171 (or vehicle).

A549 tumour xenografts = assay: A549 xenograft tumour growth, combination study; format: in vivo, mice; details: Compound A 20 mg/kg, AZD2171 3 mg/kg; for tumour growth inhibition: A549, female athymic mice, oral gavage once daily, 21 days, combination same doses, compared to control; for tumours smaller than at start of treatment: A549, individual tumour volumes at the end of the dosing period
Description: Human tumour xenografts were established in female athymic mice by injecting 5×10^6/0.1 ml A549a cells subcutaneously in the left hand side flank.
(§2) When mean tumour volume reached approximately 0.27 cm^3, the mice were randomized into control and treatment groups. […] The control group received both vehicles alone (same sequence as above), once daily by oral gavage. Tumor volumes (measured by calliper), animal body weight and tumor condition were recorded twice weekly for the duration of the study. Mice were humanely sacrificed by CO2 euthanasia. Tumour volumes were assessed using bilateral Vernier calliper measurement at least twice weekly and calculated using the formula (length×width)×√(length×width)×(π/6), where length was taken to be the longest diameter across the tumour and width the corresponding perpendicular. Growth inhibition from the start of treatment was assessed by comparison of the differences in tumor volume between control and treated groups. Because the variance in mean tumor volume data increases proportionally with volume (and is therefore disproportionate between groups), data were log-transformed to remove any size dependency before statistical evaluation. Statistical significance was evaluated using a one-tailed, two-sample t test. To analyze the data from the combination study, the statistical tool SigmaStat has been used. A two-way ANOVA test was performed using the factors concentration of drug A and concentration of drug B. The data analyzed was Log(final tumor volume)−Log(initial tumor volume) calculated for each individual animal at the end of the study. This tool is used to assess whether there is a main effect of drug A, a main effect of drug B plus a significant mechanistic interaction between the two compounds A and B (eg, one compound influences the effect of the other compound) which may be interpreted as antagonism, additivity or synergism. The statistical analysis was performed at the end of the dosing period (21 days).

[3] = tested on: Microvessel density (CD31 staining); assay: microvessel density by CD31 immunohistochemistry, A549 xenografts; format: in vivo, mice; details: A549 xenograft, 2 hours after 4 days of treatment; vehicle 26.6%; Compound A 20 mg/kg, AZD2171 3 mg/kg
Description: Microvessel density (MVD) was evaluated using CD31 staining by immunohistochemistry 2 hours after 4 days of treatment.

NCI-H526 xenografts = assay: NCI-H526 xenograft tumour growth, combination study; format: in vivo; details: NCI-H526, nude mice, oral gavage; Compound A 20 mg/kg, AZD2171 3 mg/kg, combination same doses; compared with vehicle control
Description: Cells were grown in NCI-H526 (RPMI 10% FCS 1% Glutamine 10% Ml), and 1×10^7 cells were implanted into the flank of nude mice (NCI-H526 plus 50% matrigel).
When mean tumor size reached approx 0.2 cm^3, the mice were randomized into control and treatment groups. […] When administered in combination, COMPOUND A was given 2 hours […] the oral dose of the other compound. The control group received the (10% DMSO 90% propylene glycol) vehicle alone, once daily by oral gavage. Tumor volumes (measured by calliper), animal body weight and tumor condition were recorded twice weekly for the duration of the study. Mice were sacrificed by CO2 euthanasia. The tumor volume was calculated (taking length to be the longest diameter across the tumor and width to be the corresponding perpendicular diameter using the formula: (length×width)×√(length×width)×(π/6). Growth inhibition from the start of treatment was assessed by comparison of the differences in tumor volume between control and treated groups. Because the variance in mean tumor volume data increases proportionally with volume (and is therefore disproportionate between groups), data were log-transformed to remove any size dependency before statistical evaluation. Statistical significance was evaluated using a one-tailed, two-sample t test. To analyze the data from the combination study, the statistical tool SigmaStat has been used. […]

[4] = body weight loss in A549 study; format: in vivo, mice; details: Compound A 20 mg/kg, AZD2171 3 mg/kg, range in brackets
Description: as §2, with “To analyze the data from the combination study, the statistical tool SigmaStat has been used.” left out, “This tool is used to assess whether there is a main effect of drug A, a main effect of drug B plus a significant mechanistic interaction between the two compounds A and B (eg, one compound influences the effect of the other compound) which may be interpreted as antagonism, additivity or synergism. The statistical analysis was performed at the end of the dosing period (21 days).” left out

HUVEC = HUVEC assay, endothelial cell proliferation; format: cell-based; details: Homo sapiens
cleaved caspase 3 [5] = assay: cleaved caspase 3 immunohistochemistry, A549 xenografts; format: in vivo, mice; details: A549 xenograft, 2 hours after 4 days of treatment; control 0.94%; Compound A 20 mg/kg, AZD2171 3 mg/kg
Description: Compound A was dosed two hours before AZD2171 (or vehicle). […] The levels of cleaved caspase 3 (percentage of positive nuclei) were determined in tumour xenografts by immunohistochemistry 2 hours after 4 days of treatment.

Calu-6 tumour xenograft = Calu-6 tumour xenograft in vivo solid tumour model; details: once-daily oral, 28 days
pAKT [6] = assay: pharmacodynamic study, pAKT in A549 xenograft tissue; format: in vivo, mice; details: 4 days of treatment, 2 hrs after last dosing, Compound A 20 mg/kg, AZD2171 3 mg/kg
Description: as §1
In the combination group, levels of pAKT were similar to those with Compound A to 58% (p<0.005) compared to control (FIG. 3).

[7] = body weight loss in U87MG study; format: in vivo, mice; details: Compound A 10 mg/kg, ZD6474 50 mg/kg, range in brackets
Description: (§3) Human tumour xenografts were established in female athymic mice by injecting 2.3×10^6/0.1 ml U87MG cells subcutaneously in the left hand side flank. When mean tumour volume reached approximately 0.18 cm^3, the mice were randomized into control and treatment groups. The treatment groups received 50 mg/kg ZD6474 (vehicle 1% polysorbate 80 milled overnight) or 10 mg/kg COMPOUND A (30% captisol pH5) or a combination 50 mg/kg ZD6474 and 10 mg/kg COMPOUND A by oral gavage. When administered in combination, COMPOUND A was given 2 hours before the oral dose of ZD6474. The control group received both vehicles (same sequence as above), once daily by oral gavage. Tumor volumes (measured by calliper), animal body weight and tumor condition were recorded twice weekly for the duration of the study. Mice were humanely sacrificed by CO2 euthanasia. Tumour volumes were assessed using bilateral Vernier calliper measurement at least twice weekly and calculated using the formula (length×width)×√(length×width)×(π/6), where length was taken to be the longest diameter across the tumour and width the corresponding perpendicular. Growth inhibition from the start of treatment was assessed by comparison of the differences in tumor volume between control and treated groups. […] Statistical significance was evaluated using a one-tailed, two-sample t test. […]

pAKT [8] = assay: pharmacodynamic study, pAKT in U87MG xenograft tissue; format: in vivo, mice; details: 4 days of treatment, 2 hrs after last dosing, Compound A 10 mg/kg, ZD6474 50 mg/kg
pS6 [9] = assay: pharmacodynamic study, pS6 in U87MG xenograft tissue; details: 4 days of treatment, 2 hrs after last dosing, Compound A 10 mg/kg, ZD6474 50 mg/kg
Description: A pharmacodynamic study evaluated biomarkers after 4 days of treatment. Animals were dosed with vehicle, ZD6474 (50 mg/kg), Compound A (10 mg/kg) or the combination daily. Compound A was dosed two hours before ZD6474 (or vehicle). Animals were culled and tumour xenograft tissue collected 2 hrs after the last dosing. […] In addition a two-way ANOVA test was performed to analyse the interaction between compounds in the combination group.

cleaved caspase 3 [10] = assay: cleaved caspase 3 immunohistochemistry, U87MG xenografts; format: in vivo, mice; details: U87MG xenograft, 2 hours after 4 days of treatment; control 0.46%; Compound A 10 mg/kg, ZD6474 50 mg/kg
Description: The levels of cleaved caspase 3 (percentage of positive nuclei) were determined in tumour xenografts by immunohistochemistry 2 hours after 4 days of treatment.

[11] = tested on: Microvessel density (CD31 staining); assay: microvessel density by CD31 immunohistochemistry, U87MG xenografts; format: in vivo, mice; details: U87MG xenograft, 2 hours after 4 days of treatment; vehicle 59%; Compound A 10 mg/kg, ZD6474 50 mg/kg
Description: Microvessel density (MVD) was evaluated using CD31 staining by immuno-histochemistry 2 hours after 4 days of treatment. MVD values were 59% in vehicle-treated animals, reduced to 22% (p<0.05) after ZD6474, 50% (p=0.23) after Compound A, and 28% (p<0.05) after the combination (FIG. 8). There was no statistical interaction between compound A and ZD6474 in the combination-treated tumours (p=0.27).

U87MG xenografts = assay: U87MG xenograft tumour growth, combination study; format: in vivo; details: female athymic mice, oral gavage once daily, 7 days, Compound A 10 mg/kg/qd, ZD6474 50 mg/kg/qd, combination same doses, compared to control
Description: as §3

Sequence of stem cell factor receptor tyrosine kinase (SCF RTK, commonly known as c-Kit) (P10721 26-976): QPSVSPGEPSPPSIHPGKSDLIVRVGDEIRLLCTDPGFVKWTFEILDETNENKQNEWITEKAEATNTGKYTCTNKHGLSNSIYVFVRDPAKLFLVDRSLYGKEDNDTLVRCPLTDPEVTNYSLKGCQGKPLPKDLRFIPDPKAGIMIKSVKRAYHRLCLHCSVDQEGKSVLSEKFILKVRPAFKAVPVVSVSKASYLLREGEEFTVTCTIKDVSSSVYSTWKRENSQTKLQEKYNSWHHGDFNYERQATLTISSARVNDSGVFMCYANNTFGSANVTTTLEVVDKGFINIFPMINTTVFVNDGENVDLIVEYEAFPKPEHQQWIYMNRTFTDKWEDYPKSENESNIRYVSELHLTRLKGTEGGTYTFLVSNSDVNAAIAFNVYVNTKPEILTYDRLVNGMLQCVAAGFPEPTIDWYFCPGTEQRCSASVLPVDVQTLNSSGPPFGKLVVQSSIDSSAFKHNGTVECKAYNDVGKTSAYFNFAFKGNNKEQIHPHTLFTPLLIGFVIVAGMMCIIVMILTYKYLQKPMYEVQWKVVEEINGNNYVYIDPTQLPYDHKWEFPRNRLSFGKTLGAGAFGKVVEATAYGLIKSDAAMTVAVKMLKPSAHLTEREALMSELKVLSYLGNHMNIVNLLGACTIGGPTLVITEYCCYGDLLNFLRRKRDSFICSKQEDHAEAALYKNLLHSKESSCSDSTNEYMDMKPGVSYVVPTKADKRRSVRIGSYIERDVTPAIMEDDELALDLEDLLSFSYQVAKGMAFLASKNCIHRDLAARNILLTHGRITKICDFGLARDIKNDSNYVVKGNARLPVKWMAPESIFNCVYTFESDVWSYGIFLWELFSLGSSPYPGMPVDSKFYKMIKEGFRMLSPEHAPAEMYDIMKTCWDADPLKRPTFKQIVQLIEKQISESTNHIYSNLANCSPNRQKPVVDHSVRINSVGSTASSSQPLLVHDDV

inhibition of c-Kit [1]	SMILES	levels of pS6 (normalised to total) compared to control (pS6 [2]) [%]	tumour growth inhibition (A549 tumour xenografts) [%]	tumours smaller than at start of treatment (A549 tumour xenografts)	MVD values [3] [%]	reduction in geometric mean delta tumour volume (NCI-H526 xenografts) [%]	maximum body weight loss [4] [%]	IC50 (HUVEC; HUVEC assay, VEGF-stimulated, read-out: IC50, VEGF-stimulated endothelial cell proliferation) [pM]	IC50 (HUVEC; HUVEC, basal (no VEGF stimulation), read-out: IC50, basal endothelial cell proliferation) [pM]	CC3 values (percentage of positive nuclei) (cleaved caspase 3 [5]) [%]	inhibition of growth of Calu-6 tumour xenograft (Calu-6 tumour xenograft; 1.5 mg/kg/day) [%]	inhibition of growth of Calu-6 tumour xenograft (Calu-6 tumour xenograft; 3 mg/kg/day) [%]	inhibition of growth of Calu-6 tumour xenograft (Calu-6 tumour xenograft; 6 mg/kg/day) [%]	levels of pAKT (normalised to total) compared to control (pAKT [6]) [%]	maximum body weight loss [7] [%]	levels of pAKT (normalised to total) compared to control (pAKT [8]) [%]	levels of pS6 (normalised to total) compared to control (pS6 [9]) [%]	CC3 values (percentage of positive nuclei) (cleaved caspase 3 [10]) [%]	MVD values [11] [%]	tumour growth inhibition (U87MG xenografts) [%]
inhibits c-Kit	COc1cc2c(Oc3ccc4[nH]c(C)cc4c3F)ncnc2cc1OCCCN1CCCC1 [AZD2171, 4-(4-fluoro-2-methyl-1H-indol-5-yloxy)-6-methoxy-7-(3-(pyrrolidin-1-yl)propoxy)quinazoline]	126	81.6	tumour volumes were greater than at start of the treatment	7.75	64	2.52	400 ± 200	> 500000	0.43	49	69	91	95	–	–	–	–	–	–
–	COc1ccc(-c2ccc3c(N4CCOC[C@@H]4C)nc(N4CCOC[C@@H]4C)nc3n2)cc1CO [Compound A, [5-[2,4-bis[(3S)-3-methylmorpholin-4-yl]pyrido[5,6-e]pyrimidin-7-yl]-2-methoxyphenyl]methanol]	37	99.3	4 out of 10	19.39	38	3.45	–	–	1.98	–	–	–	48	0.44	37	55	1.64	50	28.4
–	COc1cc2c(Nc3ccc(Br)cc3F)ncnc2cc1OCC1CCN(C)CC1 [ZD6474, 4-(4-bromo-2-fluoroanilino)-6-methoxy-7-(1-methylpiperidin-4-ylmethoxy)quinazoline]	–	–	–	–	–	–	–	–	–	–	–	–	–	3.77	87	108	0.73	22	−14.6

Reference: US20110028471A1, “COMBINATION THERAPY 238” (ASTRAZENECA AB, priority 2008, published 2011)
